Experimental data reported in patent US10689341B2, “Small molecule N-(alpha-peroxy) indole compounds and methods of use” (King Abdullah University of Science and Technology, priority 2016, dated 2020).

Experiment: Stability in CDC13 in the NMR tube at room temperature
Format: physicochemical
Settings: decomposed in one day

COc1ccc2c(c1)c(CCNC(C)=O)cn2C(CC(C)C)OOC(C)(C)CC(OC(C)=O)OC(C)=O (stereo not shown) [Compound 7]
stability in CDC13: not be stable
